Test results taken from patent publication US20250228861A1, “Cancer Treatments Using MTA-Cooperative PRMT5 Inhibitors” (AMGEN INC., priority 2022, published 2025).

What was measured:
H292 cells [1] = test: Combination with pemetrexed, CellTiter-Glo viability, Fa and CalcuSyn CI; settings: 6 days;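 also: fa derived from CellTiter-Glo luminescence signal, CI calculated in CalcuSyn from doses and Fa, with 0.9–1.1 nearly additive and smaller values indicating synergism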
Protocol: (§1) Cell viability was measured by the CellTiter-Glo Luminescence assay. Raw luminescent values were converted to fraction affected (Fa) with the following equation:
(§2) Synergy analysis was performed using the CalcuSyn software to determine CI scores based on the drug concentrations used and corresponding Fa values.

MIAPACA2T2 cells [2] = test: Combination with carboplatin, CellTiter-Glo viability, Fa and CalcuSyn CI; format: cell-based; settings: 6 days
Protocol: as §1, §2

A549 cells [3] = test: Combination with paclitaxel, CellTiter-Glo viability, Fa and CalcuSyn CI; format: cell-based; settings: 6 days;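 also: luminescent viability signal converted to fraction affected (Fa), and Fa with drug concentrations gives the CalcuSyn CI, where 0.9–1.1 is nearly additive and lower CI means stronger synergism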
Protocol: as §1, §2

MIAPACA2T2 cells [4] = test: Combination with irinotecan, CellTiter-Glo viability, Fa and CalcuSyn CI; format: cell-based; settings: 6 days
Protocol: as §1, §2

PSN1 cells = test: as above; format: cell-based; settings: 6 days
Protocol: as §1, §2

MIAPACA2T2 cells [5] = test: Combination with gemcitabine, CellTiter-Glo viability, Fa and CalcuSyn CI; format: cell-based; settings: 6 days
Protocol: as §1, §2

H292 NSCLC xenografts = test: H292 NSCLC xenografts, combination with chemotherapy; format: in vivo, mice; settings: 100 mg/kg orally once daily + paclitaxel 20 mg/kg IP
A549 cells [6] = test: Combination with pemetrexed, CellTiter-Glo viability, Fa and CalcuSyn CI; settings: 6 days;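 also: fa derived from raw CellTiter-Glo luminescence, CI computed by CalcuSyn from drug concentrations and Fa, with values below 0.9 meaning synergism and 0.9–1.1 nearly additive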
Protocol: as §1, §2

H292 cells [7] = test: Combination with paclitaxel, CellTiter-Glo viability, Fa and CalcuSyn CI; format: cell-based; settings: 6 days;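 also: fa derived from raw luminescence, CI computed in CalcuSyn from drug concentrations and Fa, with CI under 0.9 indicating synergism and 0.9 to 1.1 nearly additive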
Protocol: as §1, §2

[8] = Compound G 0.437382 μM fixed + Pemetrexed 0.082858 μM
[9] = Compound G 0.437382 μM fixed + Pemetrexed 0.140859 μM
[10] = Compound G 0.437382 μM fixed + Pemetrexed 0.239461 μM
[11] = Compound G 0.437382 μM fixed + Pemetrexed 0.407083 μM
[12] = Compound G 0.437382 μM fixed + Pemetrexed 0.692042 μM
[13] = Compound G 0.437382 μM fixed + Pemetrexed 1.17647 μM
[14] = Compound G 0.437382 μM fixed + Pemetrexed 2 μM
[15] = Compound G 0.831 μM fixed + Carboplatin 2.47793 μM
[16] = Compound G 0.831 μM fixed + Carboplatin 3.3452 μM
[17] = Compound G 0.831 μM fixed + Carboplatin 4.51602 μM
[18] = Compound G 0.831 μM fixed + Carboplatin 6.09663 μM
[19] = Compound G 0.831 μM fixed + Carboplatin 8.23045 μM
[20] = Compound G 0.831 μM fixed + Carboplatin 11.1111 μM
[21] = Compound G 0.831 μM fixed + Carboplatin 15 μM
[22] = Compound G 0.437382 μM fixed + Paclitaxel 0.0005 μM
[23] = Compound G 0.437382 μM fixed + Paclitaxel 0.0007 μM
[24] = Compound G 0.437382 μM fixed + Paclitaxel 0.0009 μM
[25] = Compound G 0.437382 μM fixed + Paclitaxel 0.0011 μM
[26] = Compound G 0.437382 μM fixed + Paclitaxel 0.0015 μM
[27] = Compound G 0.437382 μM fixed + Paclitaxel 0.0019 μM
[28] = Compound G 0.437382 μM fixed + Paclitaxel 0.0025 μM
[29] = Compound G 0.83102 μM fixed + Irinotecan 0.131072 μM
[30] = Compound G 0.83102 μM fixed + Irinotecan 0.16384 μM
[31] = Compound G 0.83102 μM fixed + Irinotecan 0.2048 μM
[32] = Compound G 0.83102 μM fixed + Irinotecan 0.256 μM
[33] = Compound G 0.83102 μM fixed + Irinotecan 0.4 μM
[34] = Compound G 0.83102 μM fixed + Irinotecan 0.5 μM
[35] = Compound G 0.83102 μM fixed + Irinotecan […]
[36] = Compound G 0.0213 μM fixed + Irinotecan 0.035117 μM
[37] = Compound G 0.0213 μM fixed + Irinotecan 0.052675 μM
[38] = Compound G 0.0213 μM fixed + Irinotecan 0.079012 μM
[39] = Compound G 0.0213 μM fixed + Irinotecan 0.118519 μM
[40] = Compound G 0.0213 μM fixed + Irinotecan 0.177778 μM
[41] = Compound G 0.0213 μM fixed + Irinotecan 0.266667 μM
[42] = Compound G 0.0213 μM fixed + Irinotecan 0.4 μM
[43] = Compound G 0.831 μM fixed + Gemcitabine 0.001322 μM
[44] = Compound G 0.831 μM fixed + Gemcitabine 0.001784 μM
[45] = Compound G 0.831 μM fixed + Gemcitabine 0.002409 μM
[46] = Compound G 0.831 μM fixed + Gemcitabine 0.003252 μM
[47] = Compound G 0.831 μM fixed + Gemcitabine 0.00439 μM
[48] = Compound G 0.831 μM fixed + Gemcitabine 0.005926 μM
[49] = Compound G 0.831 μM fixed + Gemcitabine 0.008 μM

Nc1nc2cnc(C(=O)N3CCOC[C@@H]3c3ccc(C(F)(F)F)cc3)cc2c2c1COC2 [Compound G]
Combination Fa (H292 cells [1]; [8]): 0.602
Computed CI value (H292 cells [1]; [8]): 1.359
Combination Fa (H292 cells [1]; [9]): 0.63
Computed CI value (H292 cells [1]; [9]): 1.184
Combination Fa (H292 cells [1]; [10]): 0.678
Computed CI value (H292 cells [1]; [10]): 0.914
Combination Fa (H292 cells [1]; [11]): 0.741
Computed CI value (H292 cells [1]; [11]): 0.64
Combination Fa (H292 cells [1]; [12]): 0.827
Computed CI value (H292 cells [1]; [12]): 0.342
Combination Fa (H292 cells [1]; [13]): 0.885
Computed CI value (H292 cells [1]; [13]): 0.216
Combination Fa (H292 cells [1]; [14]): 0.904
Computed CI value (H292 cells [1]; [14]): 0.235
Combination Fa (MIAPACA2T2 cells [2]; [15]): 0.711
Computed CI value (MIAPACA2T2 cells [2]; [15]): 0.599
Combination Fa (MIAPACA2T2 cells [2]; [16]): 0.766
Computed CI value (MIAPACA2T2 cells [2]; [16]): 0.521
Combination Fa (MIAPACA2T2 cells [2]; [17]): 0.832
Computed CI value (MIAPACA2T2 cells [2]; [17]): 0.437
Combination Fa (MIAPACA2T2 cells [2]; [18]): 0.881
Computed CI value (MIAPACA2T2 cells [2]; [18]): 0.402
Combination Fa (MIAPACA2T2 cells [2]; [19]): 0.939
Computed CI value (MIAPACA2T2 cells [2]; [19]): 0.322
Combination Fa (MIAPACA2T2 cells [2]; [20]): 0.963
Computed CI value (MIAPACA2T2 cells [2]; [20]): 0.313
Combination Fa (MIAPACA2T2 cells [2]; [21]): 0.966
Computed CI value (MIAPACA2T2 cells [2]; [21]): 0.396
Combination Fa (A549 cells [3]; [22]): 0.6362
Computed CI value (A549 cells [3]; [22]): 0.639
Combination Fa (A549 cells [3]; [23]): 0.6087
Computed CI value (A549 cells [3]; [23]): 0.863
Combination Fa (A549 cells [3]; [24]): 0.7048
Computed CI value (A549 cells [3]; [24]): 0.786
Combination Fa (A549 cells [3]; [25]): 0.7817
Computed CI value (A549 cells [3]; [25]): 0.77
Combination Fa (A549 cells [3]; [26]): 0.9048
Computed CI value (A549 cells [3]; [26]): 0.736
Combination Fa (A549 cells [3]; [27]): 0.95
Computed CI value (A549 cells [3]; [27]): 0.759
Combination Fa (A549 cells [3]; [28]): 0.9687
Computed CI value (A549 cells [3]; [28]): 0.869
Combination Fa (MIAPACA2T2 cells [4]; [29]): 0.718
Computed CI value (MIAPACA2T2 cells [4]; [29]): 0.691
Combination Fa (MIAPACA2T2 cells [4]; [30]): 0.7359
Computed CI value (MIAPACA2T2 cells [4]; [30]): 0.751
Combination Fa (MIAPACA2T2 cells [4]; [31]): 0.8028
Computed CI value (MIAPACA2T2 cells [4]; [31]): 0.72
Combination Fa (MIAPACA2T2 cells [4]; [32]): 0.8794
Computed CI value (MIAPACA2T2 cells [4]; [32]): 0.677
Combination Fa (MIAPACA2T2 cells [4]; [33]): 0.9677
Computed CI value (MIAPACA2T2 cells [4]; [33]): 0.655
Combination Fa (MIAPACA2T2 cells [4]; [34]): 0.9854
Computed CI value (MIAPACA2T2 cells [4]; [34]): 0.649
Combination Fa (MIAPACA2T2 cells [4]; [35]): 0.9132
Computed CI value (MIAPACA2T2 cells [4]; [35]): 0.729
Combination Fa (PSN1 cells; [36]): 0.4007
Computed CI value (PSN1 cells; [36]): 0.981
Combination Fa (PSN1 cells; [37]): 0.3585
Computed CI value (PSN1 cells; [37]): 1.28
Combination Fa (PSN1 cells; [38]): 0.4649
Computed CI value (PSN1 cells; [38]): 1.168
Combination Fa (PSN1 cells; [39]): 0.6137
Computed CI value (PSN1 cells; [39]): 1.087
Combination Fa (PSN1 cells; [40]): 0.8505
Computed CI value (PSN1 cells; [40]): 0.852
Combination Fa (PSN1 cells; [41]): 0.9402
Computed CI value (PSN1 cells; [41]): 0.836
Combination Fa (PSN1 cells; [42]): 0.9731
Computed CI value (PSN1 cells; [42]): 0.916
Combination Fa (MIAPACA2T2 cells [5]; [43]): 0.599
Computed CI value (MIAPACA2T2 cells [5]; [43]): 1.117
Combination Fa (MIAPACA2T2 cells [5]; [44]): 0.66
Computed CI value (MIAPACA2T2 cells [5]; [44]): 1.094
Combination Fa (MIAPACA2T2 cells [5]; [45]): 0.787
Computed CI value (MIAPACA2T2 cells [5]; [45]): 0.962
Combination Fa (MIAPACA2T2 cells [5]; [46]): 0.93
Computed CI value (MIAPACA2T2 cells [5]; [46]): 0.793
Combination Fa (MIAPACA2T2 cells [5]; [47]): 0.969
Computed CI value (MIAPACA2T2 cells [5]; [47]): 0.825
Combination Fa (MIAPACA2T2 cells [5]; [48]): 0.989
Computed CI value (MIAPACA2T2 cells [5]; [48]): 0.826
Combination Fa (MIAPACA2T2 cells [5]; [49]): 0.993
Computed CI value (MIAPACA2T2 cells [5]; [49]): 0.981
anti-tumor activity of combination with paclitaxel (H292 NSCLC xenografts): significant anti-tumor activity versus either single agent alone
Combination Fa (A549 cells [6]; [8]): 0.669
Computed CI value (A549 cells [6]; [8]): 0.846
Combination Fa (A549 cells [6]; [9]): 0.651
Computed CI value (A549 cells [6]; [9]): 1.064
Combination Fa (A549 cells [6]; [10]): 0.693
Computed CI value (A549 cells [6]; [10]): 0.882
Combination Fa (A549 cells [6]; [11]): 0.712
Computed CI value (A549 cells [6]; [11]): 0.922
Combination Fa (A549 cells [6]; [12]): 0.834
Computed CI value (A549 cells [6]; [12]): 0.363
Combination Fa (A549 cells [6]; [13]): 0.918
Computed CI value (A549 cells [6]; [13]): 0.132
Combination Fa (A549 cells [6]; [14]): 0.948
Computed CI value (A549 cells [6]; [14]): 0.087
Combination Fa (H292 cells [7]; [22]): 0.6656
Computed CI value (H292 cells [7]; [22]): 0.92
Combination Fa (H292 cells [7]; [23]): 0.7749
Computed CI value (H292 cells [7]; [23]): 0.728
Combination Fa (H292 cells [7]; [24]): 0.8617
Computed CI value (H292 cells [7]; [24]): 0.658
Combination Fa (H292 cells [7]; [25]): 0.8929
Computed CI value (H292 cells [7]; [25]): 0.704
Combination Fa (H292 cells [7]; [26]): 0.9417
Computed CI value (H292 cells [7]; [26]): 0.749
Combination Fa (H292 cells [7]; [27]): 0.957
Computed CI value (H292 cells [7]; [27]): 0.85
Combination Fa (H292 cells [7]; [28]): 0.974
Computed CI value (H292 cells [7]; [28]): 0.94
